We go through seven compounds from US4051244A, “2,4-Diamino 5-bromo 6-chloro pyrimidines, process for their preparation and use as pharmaceuticals” (Mar-Pha Societe d'Etudes et d'Exploitation de Marques, priority 1975, dated 1977).

The nature of series [1]: LD 50 in the mouse, intravenous (cumulative method of Reed and Muench). Particulars: in vivo. Here is the method: (§1) The toxicities of the products according to the invention have been determined on the mouse CD 1 (Charles River) by intravenous and oral methods. The lethal doses 50% (LD 50) are calculated by the cumulative method of Reed J. J. and Muench, H. (Am. J. Hyg. 27, 493, 1938).

Series [2] can be described thus: LD 50 in the mouse, oral (cumulative method of Reed and Muench). To be noted: in vivo. As to the method: as §1
Series [3] relates to vomitings induced by apomorphine. The series can be described thus: Anti-emetic test: vomitings induced by apomorphine in the dog, oral. The class given is in vivo. Particulars: mongrel dog; for ED50: Canis lupus familiaris, read-out: DE 50, dose diminishing by 50% the number of vomitings induced by apomorphine. The text has this:
The anti-emetic properties of the compounds according to the invention are shown by oral way in the mongrel dog in tests in which vomitings are induced by apomorphine according to Chen, G. and Ensor, C. (J. Pharmacol exp. Ther. 98, 24, 1950).
The results are expressed by a DE 50 which represents the dose of product capable of diminishing by 50% the number of vomitings induced by the agent.

The test system of series [4] is bronchospasms induced by serotonine. The series is described as follows: Bronchospasms using serotonine in guinea pigs, intravenous. The class given is in vivo, Albinos Hartley guinea-pigs. Particulars: Cavia porcellus, i.v., anesthesized guinea-pigs, read-out: DE 50, dose reducing by 50% the amplitude of bronchospasms using serotonine in guinea pigs. The text has this: (§2) The anti-serotonine properties of the compounds according to the invention are shown in vitro and in vivo.
In vivo, the products are applied by intra-venous way to anesthesized Albinos Hartley guinea-pigs. A method originated from Konzett, H. and Rossler, R. is employed (Naunyn. Schmiedeberg's Arch. exp. Path. Pharmakol, 195, 71, 1940). The results, shown in the table hereunder, are expressed by a DE 50 which represents the dose capable of reducing by 50% the amplitude of bronchospasms induced by the administration of serotonine.

In series [5] the test system is ulcer induced by reserpine. The series is described as follows: Protection against the ulcer induced by reserpine in a rat, acute oral. The class given is in vivo, rat CD (Charles River). To be noted: for antiulcer properties (in words): p.o., reserpine and constraint ulcer; for ED50: po, read-out: DA 50, dose protecting 50% of the animals against the ulcer induced by reserpine in a rat. The text has this: (§3) The anti-ulcer properties of the products according to the invention are shown in the rat CD (Charles River) by acute oral administration using two techniques.
The first technique studies the activity of the product in connection with the experimental ulcer induced by […] according to Brodie, D. A. (Gastroenterology, 43, 675, 1962). The result is expressed by a DA 50 which represents the dose in mg/kg capable of protecting 50% of the animals against the least trace of ulceration of the mucous gastric system.

Series [6] relates to isolated duodenum, spasms induced by acetylcholine. The series can be described thus: Spasms of the isolated duodenum of a rat induced by acetylcholine (neurotropic). Particulars: for spasmolytic effects, both musculotropic and neurotropic (in words): acetylcholine and barium chloride. The text has this: (§4) The anti-spasmodic properties of the compounds according to the invention are shown by use of the technique of Magnus, R. (Ges. Physiol. 102, 123, 1904) in connection with the spasms of the isolated duodenum of a rat caused by either acetylcholine to research an effect of neurotropic type or by barium chloride to research an effect of musculotropic type.
(§5) The results, shown hereunder, are expressed by a CE 50 which represents the concentration of product in mg/1 capable of decreasing by 50% the amplitude of spasms thus induced.

The subject of series [7] is isolated duodenum, spasms induced by barium chloride. The series can be described thus: Spasms of the isolated duodenum of a rat induced by barium chloride (musculotropic).
From the text: as §4, §5

The subject of series [8] is isolated uterus, spasms induced by serotonine. The series can be described thus: Spasms of isolated uterus of rat induced by serotonine. Particulars: for CE 50, spasms of isolated uterus of rat induced by serotonine: in vitro. Also on record: species or system rat CD (Charles River).
From the text: as §2
In vitro, the action of the products on the spasms induced by the serotonine in the isolated uterus of a rat (rat CD Charles River) is shown, according to the technique of Fanchamps, A., Doepfner, W., Weidman, H. and Cerletti, (A. Schw. Med. Worsch. 90, 1040, 1960). The results, shown in the table hereunder, are expressed by a CE 50 which represents the concentration in mg/1 of the product capable of decreasing by 50% the amplitude of spasms induced by the serotonine.

For series [9], the system named is cerebral phosphodiesterases. The series can be described thus: Inhibition of the phosphodiesterases of the brain. The class given is biochemical, rat CD (Charles River). The text has this:
The phosphodiesterasic activity is shown by the method of Kukovetz E. R. and Poech, G. (Arch. Pharmakol. 1970, 267, 189) by utilizing the supernatant part obtained after centrifugation at 10,000 G of the brain of male rats CD (Charles River).
The inhibiting action of the compounds according to the invention on the cerebral phosphodiesterases has been tested and expressed by an inhibiting concentration 50% (CI 50) in micromoles.

A further series relates to constraint ulcer. The series can be described thus: Protection against constraint ulcer, acute oral. Type of series: in vivo, rat CD (Charles River). To be noted: p.o., rat, 24 hours constraint, read-out: DE 50, dose decreasing by 50% the ulcerating effect (constraint ulcer).
From the text: as §3
The second studies the activity of the product in connection with the constraint ulcer according to Rossi, G., Bonfils, S., Leifooche, G. and Lambling A. (C.R. Soc. Biol. 150, 2124, 1956). The result is expressed by a DE 50 which represents the dose of the substance in mg/kg capable of decreasing by 50% the ulcerating effect caused by the 24 hours constraint.

On to `CNc1nc(Cl)c(Br)c(N2CCN(C)CC2)n1` [Example 1, 2-methylamino-4-(N-methylpiperazinyl) 5-bromo 6-chloro pyrimidine], for which the values for the LD50 in series [1] and in series [2] were 55 mg/kg and 100 mg/kg, respectively. Moreover, the ED50 came to 1 mg/kg in [3] and 0.08 mg/kg in series [4].
In the case of `CC(C)Nc1nc(N2CCN(C)CC2)nc(Cl)c1Br` [Example 2, 2-(N-methylpiperazinyl) 4,isopropylamino 5-bromo 6-chloro pyrimidine], the results for the LD50 in series [1] and in series [2] were 83 mg/kg and 675 mg/kg, respectively. Also, in [5], the “antiulcer properties (in words)” value is “outstanding antiulcer properties”. The ED50 is 100 mg/kg in [5], more than 5 mg/kg in [3] and 0.45 mg/kg in series [4]. For the same compound, the “CE 50, concentration decreasing by 50% the amplitude of spasms induced by acetyl-choline” value in series [6] stood at 5.5 mg/L. Besides, the “CE 50, concentration decreasing by 50% the amplitude of spasms induced by barium chloride” value in [7] worked out at 3 mg/L. In series [8], the “CE 50, spasms of isolated uterus of rat induced by serotonine” value (“CE 50, spasms” below) worked out at 0.07 mg/L. Further, the “inhibiting action on the cerebral phosphodiesterases (in words)” value in [9] (rat brain supernatant) is on record as “interesting inhibiting action”. In [9] (supernatant of brain of male rats, 10,000 G, read-out: CI 50, inhibiting concentration 50% on the cerebral phosphodiesterases), the IC50 was found to be 40 µM.
For `CC(C)Nc1nc(Cl)c(Br)c(N2CCN(C)CC2)n1` [Example 3], the 50% lethal dose (LD50) is 86 mg/kg in series [1] and 200 mg/kg in series [2]. Further, the “antiulcer properties (in words)” value in series [5] is recorded as “outstanding antiulcer properties”. Also, the ED50 in [5] stood at 20 mg/kg; in the series with constraint ulcer, 12 mg/kg; in series [3], 1.4 mg/kg; in series [4], 0.85 mg/kg. Moreover, in series [6], the “CE 50, concentration decreasing by 50% the amplitude of spasms induced by acetyl-choline” value turned out to be 1.8 mg/L. In addition, the “spasmolytic effects, both musculotropic and neurotropic (in words)” value (from here on “spasmolytic effects”) in series [6] is given as “very interesting”. The “CE 50, concentration decreasing by 50% the amplitude of spasms induced by barium chloride” value in [7] is 0.6 mg/L. The “anti-emetic activity (in words)” value in series [3] (apomorphine) is reported as “very important anti-emetic activity”. In series [8] (in vitro (rat uterus) and in vivo (guinea pig)), the “anti-serotonine activity (in words)” value is recorded as “very high anti-serotonine activity”. Besides, the “CE 50, spasms” value in series [8] was determined as 0.004 mg/L.
In series [2], `CCCCCCCNc1nc(Cl)c(Br)c(N2CCN(C)CC2)n1` [Example 4] yielded an LD50 of more than 900 mg/kg. The ED50 in series [5] is more than 100 mg/kg. Also, in series [6], the “CE 50, concentration decreasing by 50% the amplitude of spasms induced by acetyl-choline” value came out at 1.4 mg/L; the “spasmolytic effects” value is “very interesting”. The “CE 50, concentration decreasing by 50% the amplitude of spasms induced by barium chloride” value in series [7] amounted to 1.3 mg/L. Further, the “CE 50, spasms” value in series [8] is 0.35 mg/L.
Consider `CN1CCN(c2nc(N)nc(Cl)c2Br)CC1` [Example 6], for which the 50% lethal dose (LD50) in [1] is 48 mg/kg. The compound also displayed an LD50 in series [2] of 600 mg/kg. In addition, in series [5], the ED50 was more than 100 mg/kg. In series [6], the “CE 50, concentration decreasing by 50% the amplitude of spasms induced by acetyl-choline” value worked out at 4 mg/L; the “spasmolytic effects” value is recorded as “very interesting”. Further, in series [7], the “CE 50, concentration decreasing by 50% the amplitude of spasms induced by barium chloride” value was 0.2 mg/L. Moreover, the “CE 50, spasms” value in [8] came to 0.05 mg/L.
`Cc1ccc(N(C)c2nc(Cl)c(Br)c(N3CCN(C)CC3)n2)cc1` [Example 7] registered a median lethal dose (LD50) in series [1] of 83 mg/kg. Also, the 50% lethal dose (LD50) in series [2] was more than 900 mg/kg. Further, the ED50 in [5] was more than 100 mg/kg. Besides, in series [6], the “CE 50, concentration decreasing by 50% the amplitude of spasms induced by acetyl-choline” value was determined as 1.4 mg/L; the “spasmolytic effects” value was “very interesting”. Moreover, the “CE 50, concentration decreasing by 50% the amplitude of spasms induced by barium chloride” value in series [7] worked out at 0.6 mg/L. In addition, the “CE 50, spasms” value in series [8] amounted to 0.05 mg/L.
In [2], `Cc1ccc(N(C)c2nc(Cl)c(Br)c(NCCN(C(C)C)C(C)C)n2)cc1` [Example 9] had an LD50 of 675 mg/kg. Moreover, the ED50 in series [5] amounted to 300 mg/kg. Further, the “CE 50, spasms” value in series [8] is 0.33 mg/L.

As a reminder, the LD50 is the dose at which mortality reaches 50%. Lower therefore signals a more toxic substance.
